Measurements from patent publication US20230416248A1, “COMPOUNDS AND USES THEREOF” (Foghorn Therapeutics Inc., priority 2020, published 2023).
Read-outs that look alike come from different tables or passages of the source.

Legend:
[1] = target: T1, BRG-1 (Homo sapiens, UniProt P51532); experiment: ATPase catalytic activity of BRG-1, ADP-Glo in vitro biochemical assay; conditions: 30 nM BRG-1, 400 μM ATP, read-out: BRG1 IC50
T1 construct: made in house; host or cells: High Five insect cells
Method in brief: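 Luminescence read-out: ADP formed by BRG-1 ATPase is converted to ATP and detected by luciferase. Residual ATP is first removed with ADP-Glo Reagent for 40 min at RT; detection reagent is then incubated 60 min at RT before reading.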

[2] = target: T2, BRM (Homo sapiens, UniProt P51531); experiment: ATPase catalytic activity of BRM, ADP-Glo in vitro biochemical assay; conditions: for IC50: 30 nM BRM, 400 μM ATP; for Ratio* (BRG1 IC50 (μM) divided by BRM IC50 (μM)): selectivity ratio BRG1 IC50 / BRM IC50
T2 construct: made in house; host or cells: High Five insect cells
Method in brief: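 ADP-Glo luminescence, after depletion of leftover ATP and conversion of ADP, reported the activity. The 1 h room-temperature reaction held 400 μM ATP, 20 nM salmon sperm DNA and 30 nM BRM in 20 mM Tris pH 8, 20 mM MgCl2, 50 mM NaCl, 0.1% Tween-20, 1 mM DTT.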

[3] = ATPase catalytic activity, ADP-Glo

T2 sequence (P51531 whole entry): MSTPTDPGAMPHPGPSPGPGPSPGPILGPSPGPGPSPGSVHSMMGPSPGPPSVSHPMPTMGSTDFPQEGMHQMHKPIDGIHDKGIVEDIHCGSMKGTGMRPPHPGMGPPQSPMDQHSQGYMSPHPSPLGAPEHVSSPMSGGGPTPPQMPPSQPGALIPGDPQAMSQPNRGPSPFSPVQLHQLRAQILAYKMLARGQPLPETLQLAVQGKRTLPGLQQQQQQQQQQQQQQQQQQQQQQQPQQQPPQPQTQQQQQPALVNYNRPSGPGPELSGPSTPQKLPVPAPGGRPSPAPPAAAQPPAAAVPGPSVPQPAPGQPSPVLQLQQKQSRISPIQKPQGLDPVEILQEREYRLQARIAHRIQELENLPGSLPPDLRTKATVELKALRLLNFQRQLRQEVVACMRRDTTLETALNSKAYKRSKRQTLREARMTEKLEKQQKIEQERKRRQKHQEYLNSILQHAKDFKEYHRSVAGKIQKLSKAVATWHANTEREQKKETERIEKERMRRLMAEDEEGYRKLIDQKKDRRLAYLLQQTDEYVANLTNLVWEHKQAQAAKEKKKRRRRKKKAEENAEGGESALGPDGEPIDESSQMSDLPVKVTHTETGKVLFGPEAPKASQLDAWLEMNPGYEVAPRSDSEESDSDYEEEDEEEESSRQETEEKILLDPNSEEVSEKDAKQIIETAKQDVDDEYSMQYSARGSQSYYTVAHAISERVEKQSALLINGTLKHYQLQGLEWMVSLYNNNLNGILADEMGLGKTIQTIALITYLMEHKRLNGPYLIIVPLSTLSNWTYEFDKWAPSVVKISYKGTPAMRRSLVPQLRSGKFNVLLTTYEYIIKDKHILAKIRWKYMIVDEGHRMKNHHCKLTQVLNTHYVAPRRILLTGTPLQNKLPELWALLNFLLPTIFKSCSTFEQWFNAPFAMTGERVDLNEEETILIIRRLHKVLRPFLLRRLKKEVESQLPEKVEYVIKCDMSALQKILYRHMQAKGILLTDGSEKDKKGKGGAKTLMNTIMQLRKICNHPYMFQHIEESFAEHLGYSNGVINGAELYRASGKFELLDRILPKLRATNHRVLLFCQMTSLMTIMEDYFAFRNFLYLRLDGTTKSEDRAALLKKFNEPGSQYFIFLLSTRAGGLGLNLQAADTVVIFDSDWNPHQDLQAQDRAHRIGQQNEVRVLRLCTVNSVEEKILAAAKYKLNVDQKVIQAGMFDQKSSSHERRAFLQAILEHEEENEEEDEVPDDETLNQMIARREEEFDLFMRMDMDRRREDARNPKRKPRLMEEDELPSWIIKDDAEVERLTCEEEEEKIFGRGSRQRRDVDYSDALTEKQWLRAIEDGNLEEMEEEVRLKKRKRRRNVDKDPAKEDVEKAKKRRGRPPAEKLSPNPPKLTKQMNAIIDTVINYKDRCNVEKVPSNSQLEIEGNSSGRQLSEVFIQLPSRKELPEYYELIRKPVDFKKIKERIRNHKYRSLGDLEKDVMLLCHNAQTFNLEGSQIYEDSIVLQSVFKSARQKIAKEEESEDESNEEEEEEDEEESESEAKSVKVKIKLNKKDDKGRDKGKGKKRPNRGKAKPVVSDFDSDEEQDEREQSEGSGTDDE
T1 sequence (P51532 whole entry): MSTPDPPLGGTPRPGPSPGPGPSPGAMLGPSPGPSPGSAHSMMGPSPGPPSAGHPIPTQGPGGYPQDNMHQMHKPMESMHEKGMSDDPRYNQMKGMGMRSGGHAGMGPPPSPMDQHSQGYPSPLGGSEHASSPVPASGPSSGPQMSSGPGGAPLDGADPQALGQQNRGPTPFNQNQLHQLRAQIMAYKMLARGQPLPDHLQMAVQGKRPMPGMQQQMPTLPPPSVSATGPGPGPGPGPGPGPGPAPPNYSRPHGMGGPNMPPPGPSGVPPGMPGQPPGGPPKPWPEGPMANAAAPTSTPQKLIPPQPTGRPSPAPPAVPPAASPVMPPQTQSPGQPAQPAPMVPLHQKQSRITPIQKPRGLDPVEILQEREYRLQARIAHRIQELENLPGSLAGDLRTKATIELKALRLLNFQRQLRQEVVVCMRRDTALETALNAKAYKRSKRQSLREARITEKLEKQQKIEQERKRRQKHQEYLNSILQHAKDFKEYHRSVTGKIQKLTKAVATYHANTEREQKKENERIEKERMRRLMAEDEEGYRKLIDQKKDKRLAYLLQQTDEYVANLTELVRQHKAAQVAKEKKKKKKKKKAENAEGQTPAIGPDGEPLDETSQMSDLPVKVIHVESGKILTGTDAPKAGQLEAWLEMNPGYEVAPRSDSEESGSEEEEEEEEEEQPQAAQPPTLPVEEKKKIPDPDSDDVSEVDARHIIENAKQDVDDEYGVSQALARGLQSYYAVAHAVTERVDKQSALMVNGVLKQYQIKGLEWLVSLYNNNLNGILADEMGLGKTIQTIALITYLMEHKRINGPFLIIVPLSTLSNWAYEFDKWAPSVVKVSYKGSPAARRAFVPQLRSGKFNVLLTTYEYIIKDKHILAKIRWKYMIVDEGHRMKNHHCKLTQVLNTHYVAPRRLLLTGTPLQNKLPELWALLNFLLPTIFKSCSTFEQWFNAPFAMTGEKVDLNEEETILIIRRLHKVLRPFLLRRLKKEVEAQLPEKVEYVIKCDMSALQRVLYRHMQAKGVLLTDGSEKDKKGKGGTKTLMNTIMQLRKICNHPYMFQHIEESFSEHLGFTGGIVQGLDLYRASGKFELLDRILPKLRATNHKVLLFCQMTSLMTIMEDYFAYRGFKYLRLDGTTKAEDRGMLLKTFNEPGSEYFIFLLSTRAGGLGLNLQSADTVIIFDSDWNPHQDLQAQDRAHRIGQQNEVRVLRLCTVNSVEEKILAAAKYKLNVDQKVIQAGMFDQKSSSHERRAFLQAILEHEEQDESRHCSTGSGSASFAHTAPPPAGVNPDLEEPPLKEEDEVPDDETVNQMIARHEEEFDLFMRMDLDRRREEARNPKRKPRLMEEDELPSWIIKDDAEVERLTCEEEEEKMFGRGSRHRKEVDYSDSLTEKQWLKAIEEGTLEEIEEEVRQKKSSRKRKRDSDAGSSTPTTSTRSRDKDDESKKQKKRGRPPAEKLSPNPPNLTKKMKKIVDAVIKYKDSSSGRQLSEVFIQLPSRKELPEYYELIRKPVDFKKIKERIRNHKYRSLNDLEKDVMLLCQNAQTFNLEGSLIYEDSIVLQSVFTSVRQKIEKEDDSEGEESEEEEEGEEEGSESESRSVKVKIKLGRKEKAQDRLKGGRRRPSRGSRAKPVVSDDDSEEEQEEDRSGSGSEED

SMILES | IC50 ([1]; ADP-Glo ATPase assay) [µM] | IC50 ([2]; ADP-Glo ATPase assay) [µM] | Ratio* ([2]; ratio BRG1 IC50 / BRM IC50) | Ratio* (BRG1 IC50 (μM) divided by BRM IC50 (μM)) [2] | IC50 [1, 3] [µM] | IC50 [2, 3] [µM] | Ratio* ([2]; ratio of BRG1 IC50 to BRM IC50)
O=C(NCc1cc2nc(-c3ccnc([C@@H]4CC4(F)F)n3)ccc2cn1)c1ccc2c(c1)S(=O)(=O)CCOC2 [Compound 218] | 1.62 | 0.166 | – | 9.79 | – | – | –
Cc1ccc2c(c1)CCCN2c1ccc2cnc(CNC(=O)c3ccc4c(c3)S(=O)(=O)CCOC4)cc2n1 [Compound 350] | – | – | – | – | 0.105 | 0.0081 | 12.99
COc1nc(C(C)(F)F)ccc1-c1ccc2cnc(CNC(=O)c3cc(F)c4c(c3)S(=O)(=O)[C@@H](C)COC4)cc2n1 [Compound 543] | – | – | – | – | 0.383 | 0.0202 | 18.97
C[C@@H]1CN(c2cc(-c3ccc4cnc(CNC(=O)c5ccc6c(c5)S(=O)(=O)CCOC6)cc4n3)ccn2)C[C@H](C)O1 [Compound 153] | 0.451 | 0.0463 | – | 9.74 | – | – | –
C[C@@H]1CN(c2cccc(-c3ccc4cnc(CNC(=O)c5cc(Cl)c6c(c5)S(=O)(=O)CC[C@H](C)O6)cc4n3)n2)C[C@H](C)O1 [Compound 506] | – | – | – | – | 0.645 | 0.0492 | 13.12
COc1c(-c2ccc3cnc(CNC(=O)c4ccc5c(c4)S(=O)(=O)CCOC5)cc3n2)cccc1C1CC1 [Compound 430] | – | – | – | – | 2.41 | 0.477 | 5.06
CNc1cccc(-c2ccc3cnc(CNC(=O)c4ccc5c(c4)S(=O)(=O)CCOC5)cc3n2)n1 [Compound 274] | 0.589 | 0.0696 | – | 8.46 | – | – | –
CO[C@H](C)c1cnc2c(c1)CCCN2c1ccc2cnc(CNC(=O)c3ccc4c(c3)S(=O)(=O)CCOC4)cc2n1 [Compound 608] | – | – | – | – | 0.952 | 0.0445 | 21.42
CN(C)c1cccc(-c2ccc3cnc(CNC(=O)c4ccc5c(c4)S(=O)(=O)CCOC5)cc3n2)n1 [Compound 303] | 0.156 | 0.0123 | – | 12.63 | – | – | –
CO[C@H]1COc2c(-c3ccc4cnc(CNC(=O)c5ccc6c(c5)S(=O)(=O)CCOC6)cc4n3)cccc2N(C)C1 [Compound 613] | – | – | – | – | 2.22 | 0.213 | 10.41
Cc1cnc2c(c1)OCCN2c1ccc2cnc(CNC(=O)c3cc(C)c4c(c3)S(=O)(=O)CCOC4)cc2n1 [Compound 549] | – | – | – | – | 0.131 | 0.0073 | 17.80
O=C(NCc1cc2nc(N3CCOc4cc(C(F)F)cnc43)ccc2cn1)c1ccc2c(c1)S(=O)(=O)CCOC2 [Compound 508] | – | – | – | – | 0.137 | 0.0131 | 10.53
COC[C@@H]1CCc2ccc(-c3ccc4cnc(CNC(=O)c5ccc6c(c5)S(=O)(=O)CCOC6)cc4n3)nc2N1C [Compound 476] | – | – | – | – | 0.0366 | 0.0037 | 9.82
C[C@@H]1CN(c2cccc(-c3ccc4cnc(CNC(=O)c5cc(F)c6c(c5)S(=O)(=O)CCO[C@@H]6C)cc4n3)n2)C[C@H](C)O1 [Compound 516] | – | – | – | – | 0.085 | 0.0122 | 6.98
O=C(NCc1cc2cc(-c3cncc(C4CC4)n3)ccc2cn1)c1cnc2c(c1)S(=O)(=O)CCOC2 [Compound 248] | 0.59 | 0.0702 | – | 8.41 | – | – | –
CN1CCc2c(-c3ccc4cnc(CNC(=O)c5ccc6c(c5)S(=O)(=O)CCOC6)cc4n3)cccc21 [Compound 233] | 1.08 | 0.0771 | – | 14.01 | – | – | –
COc1nc(C)ccc1-c1ccc2cnc(CNC(=O)c3ccc4c(c3)S(=O)(=O)[C@@H](C)COC4)cc2n1 [Compound 411] | – | – | – | – | 0.275 | 0.0146 | 18.90
CO[C@@H]1C[C@H]1N(C)c1cccc(-c2ccc3cnc(CNC(=O)c4ccc5c(c4)S(=O)(=O)CCOC5)cc3n2)n1 [Compound 480] | – | – | – | – | 0.0602 | 0.0051 | 11.83
C[C@@H]1CN(c2cccc(-c3ccc4cnc(CNC(=O)c5cc(Cl)c6c(c5)S(=O)(=O)[C@@H](C)CCO6)cc4n3)n2)C[C@H](C)O1 [Compound 484] | – | – | – | – | 0.289 | 0.0137 | 21.16
O=C(NCc1cc2nc(N3CCCc4cc(F)c(F)cc43)ccc2cn1)c1ccc2c(c1)S(=O)(=O)CCOC2 [Compound 625] | – | – | – | – | 0.515 | 0.0367 | 14.05
O=C1CS(=O)(=O)c2cc(C(=O)NCc3cc4nc(-c5cccc(C6CC6)c5)ccc4cn3)ccc2CN1 [Compound 188] | 5 | 0.287 | – | 17.42 | – | – | –
O=C(NCc1cc2nc(-c3cccc(N4CCC4)n3)ccc2cn1)c1ccc2c(c1)S(=O)(=O)CCOC2 [Compound 304, N-[[2-[6-(azetidin-1-yl)-2-pyridyl]-1,6-naphthyridin-7-yl]methyl]-1,1-dioxo-3,5-dihydro-2H-4,1λ6-benzoxathiepine-8-carboxamide] | 0.136 | 0.0094 | – | 14.43 | – | – | –
C[C@@H]1CN(c2cccc(-c3ccc4cnc(CNC(=O)c5cnc6c(c5)S(=O)(=O)CCCC6(F)F)cc4n3)n2)C[C@H](C)O1 [Compound 407] | – | – | – | – | 0.0586 | 0.0125 | 4.69
CS(=O)(=O)c1cc(C(=O)NCc2cc3nc(-c4cccc(N5CC[C@H]6OCC[C@@H]6C5)n4)ccc3cn2)ccc1C(F)F [Compound 124] | 0.541 | 0.0378 | – | 14.29 | – | – | –
O=C(NCc1cc2nc(-c3cccc(OC4CC4(F)F)n3)ccc2cn1)c1ccc2c(c1)S(=O)(=O)CCOC2 (stereo not drawn) [Compound 427] | – | – | – | – | 0.431 | 0.0473 | 9.12
Cn1ncc2c1CCCN2c1ccc2cnc(CNC(=O)c3ccc4c(c3)S(=O)(=O)CCOC4)cc2n1 [Compound 380] | – | – | – | – | 0.511 | 0.0982 | 5.20
CS(=O)(=O)c1cc(C(=O)NCc2cc3nc(-c4cccc(C5CC5)n4)ccc3cn2)ccc1C#N [Compound 259] | 5 | 0.467 | – | 10.71 | – | – | –
COc1cccc2c1CCCN2c1ccc2cnc(CNC(=O)c3ccc4c(c3)S(=O)(=O)CCOC4)cc2n1 [Compound 492] | – | – | – | – | 0.0191 | 0.0044 | 4.38

Now from value to molecule:

IC50 ([1]; ADP-Glo ATPase assay) [µM] | IC50 ([2]; ADP-Glo ATPase assay) [µM] | Ratio* ([2]; ratio BRG1 IC50 / BRM IC50) | Ratio* (BRG1 IC50 (μM) divided by BRM IC50 (μM)) [2] | IC50 [1, 3] [µM] | IC50 [2, 3] [µM] | Ratio* ([2]; ratio of BRG1 IC50 to BRM IC50) | SMILES
0.428 | 0.0132 | 32.33 | – | – | – | – | C[C@H]1COCc2ccc(C(=O)NCc3cc4nc(N5CCOc6cc(F)cnc65)ccc4cn3)cc2S1(=O)=O [Compound 738]
0.11 | 0.0082 | 13.49 | – | – | – | – | O=C(NCc1cc2nc(N3CCCc4ccc(OCC5CCO5)cc43)ccc2cn1)c1ccc2c(c1)S(=O)(=O)CCOC2 (stereo not drawn) [Compound 735]
– | – | – | – | 0.795 | 0.0763 | 10.42 | COc1cc2c(nc1C1CC1)N(c1ccc3cnc(CNC(=O)c4ccc5c(c4)S(=O)(=O)CCOC5)cc3n1)CCC2 [Compound 683]
– | – | – | – | 0.758 | 0.0145 | 52.11 | O=C(NCc1cc2nc(N3CCOc4ccc([C@H]5CC5(F)F)nc43)ccc2cn1)c1ccc2c(c1)S(=O)(=O)CCOC2 [Compound 700]
– | – | – | – | 1.7 | 0.0553 | 30.77 | COCCc1ccc2c(n1)N(c1ccc3cnc(CNC(=O)c4ccc5c(c4)S(=O)(=O)CCOC5)cc3n1)CCC2 [Compound 651]
– | – | – | – | 0.199 | 0.0143 | 13.91 | O=C(NCc1cc2nc(N3CCN(C4CC4)c4cccnc43)ccc2cn1)c1ccc2c(c1)S(=O)(=O)CCOC2 [Compound 686]
0.227 | 0.0104 | 21.91 | – | – | – | – | O=C(NCc1cc2nc(N3CCOc4cc(F)cnc43)ccc2cn1)c1ccc2c(c1)S(=O)(=O)CCOC2 [Compound 737]
0.152 | 0.0125 | 12.13 | – | – | – | – | O=C(NCc1cc2nc(N3CCOc4cc(C5CC5)ccc43)ccc2nn1)c1ccc2c(c1)S(=O)(=O)CCOC2 [Compound 775]
0.987 | 0.0459 | 21.51 | – | – | – | – | CC1(c2ccc3c(n2)N(c2ccc4cnc(CNC(=O)c5ccc6c(c5)S(=O)(=O)CCOC6)cc4n2)CCO3)CC1 [Compound 713]
0.764 | 0.0423 | 18.04 | – | – | – | – | COCc1cc(C)c2c(n1)N(c1ccc3cnc(CNC(=O)c4ccc5c(c4)S(=O)(=O)CCOC5)cc3n1)CCC2 [Compound 816]
– | – | – | – | 0.005 | 0.0039 | 1.28 | C[C@@H]1CN(c2cccc(-c3ccc4cnc(CNC(=O)c5ccc6c(c5)S(=O)(=O)CCOCC6)cc4n3)n2)C[C@H](C)O1 [Compound 627]
– | – | – | – | 0.164 | 0.0103 | 15.88 | CC(F)(F)c1ccc2c(c1)N(c1ccc3cnc(CNC(=O)c4ccc5c(c4)S(=O)(=O)CCOC5)cc3n1)CCO2 [Compound 682]
4.15 | 0.62 | 6.69 | – | – | – | – | O=C(NCc1cc2nc(-c3ccc4c(n3)CN(C3CC3)CC4)ccc2cn1)c1ccc2c(c1)S(=O)(=O)CCOC2 [Compound 788]
0.294 | 0.0268 | 10.95 | – | – | – | – | O=C(NCc1cc2nc(N3CCCc4cc(C5CC5)ncc43)ccc2cn1)c1ccc2c(c1)S(=O)(=O)CCOC2 [Compound 725]
0.0533 | 0.0053 | 9.97 | – | – | – | – | O=C(NCc1cc2nc(N3CCCc4ccc(OCC5CCOC5)cc43)ccc2cn1)c1ccc2c(c1)S(=O)(=O)CCOC2 (stereo not drawn) [Compound 759]
